Laboratory results taken from publication PMC9318203, “Squaramide-Tethered Sulfonamides and Coumarins: Synthesis, Inhibition of Tumor-Associated CAs IX and XII and Docking Simulations” (International Journal of Molecular Sciences, 2022).

What was measured:
[1] = target: T1, hCA I (Homo sapiens, UniProt P00915); assay: stopped-flow CO2 hydrase assay, hCA I; assay type: biochemical
T1 construct: made in house
Method: (§1) For that purpose, the stopped-flow CO2 hydration assay was used (Table 1).
(§2) The inhibitory properties of title compounds against CAs were determined using the stopped-flow CO2 hydrase assay, as previously reported.

[2] = target: T2, hCA II (Homo sapiens, UniProt P00918); assay: stopped-flow CO2 hydrase assay, hCA II; assay type: biochemical
T2 construct: made in house
Method: as §1, §2

[3] = target: T3, hCA IX (Homo sapiens, UniProt Q16790); assay: stopped-flow CO2 hydrase assay, hCA IX; assay type: biochemical
T3 construct: made in house
Method: as §1, §2

[4] = target: T4, hCA XII (Homo sapiens, UniProt O43570); assay: stopped-flow CO2 hydrase assay, hCA XII; assay type: biochemical
T4 construct: made in house
Method: as §1, §2

[5] = tested on: A549, HBL-100, HeLa, SW1573, T-47D, WiDr; assay: antiproliferative assay (NCI protocol), panel of six human tumor cell lines; assay type: cell-based; settings: normoxic conditions
Method: (§3) Some representative compounds (5a–e, 16b, 16e–i) were also tested as potential antiproliferative agents against a panel of six human tumor cell lines: A549 (non-small cell lung), HBL-100 (breast), HeLa (cervix), SW1573 (non-small cell lung), T-47D (breast), WiDr (colon). Unfortunately, no relevant activity was found for the tested compounds.
(§4) Minor modifications of the US National Cancer Institute (NCI) protocol were used.

[6] = tested on: A549 (non-small cell lung); assay: antiproliferative assay (NCI protocol), A549; assay type: cell-based; settings: Homo sapiens; line A549; normoxic conditions
Method: as §3, §4

[7] = sulfonamido-containing squaramides, mean from 3 assays, stopped flow
[8] = coumarin-containing squaramides, incubation time 6 h, mean from three assays

T1 sequence (P00915 whole entry): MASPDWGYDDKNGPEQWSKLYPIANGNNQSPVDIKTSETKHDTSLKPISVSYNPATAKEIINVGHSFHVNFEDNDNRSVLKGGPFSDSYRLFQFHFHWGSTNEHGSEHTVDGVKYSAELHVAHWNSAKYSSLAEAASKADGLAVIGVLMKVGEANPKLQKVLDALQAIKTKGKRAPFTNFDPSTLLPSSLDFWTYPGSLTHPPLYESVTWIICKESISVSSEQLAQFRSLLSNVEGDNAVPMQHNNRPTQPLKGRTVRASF
T4 sequence (O43570 25-354): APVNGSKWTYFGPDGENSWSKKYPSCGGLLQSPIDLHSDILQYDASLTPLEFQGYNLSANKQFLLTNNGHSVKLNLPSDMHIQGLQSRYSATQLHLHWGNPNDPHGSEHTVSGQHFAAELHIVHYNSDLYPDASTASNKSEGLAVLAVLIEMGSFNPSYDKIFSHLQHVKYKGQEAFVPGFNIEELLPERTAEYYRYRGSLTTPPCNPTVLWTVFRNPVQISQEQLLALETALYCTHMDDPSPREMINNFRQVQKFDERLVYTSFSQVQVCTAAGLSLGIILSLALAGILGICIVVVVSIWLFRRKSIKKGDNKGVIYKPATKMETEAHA

Row | Ki [1, 7] | Ki [2, 7] | S.I. I/IX ([3]; Ki (CA I)/Ki (CA IX)) | S.I. II/IX ([3]; Ki (CA II)/Ki (CA IX)) | Ki [3, 7] | S.I. I/XII ([4]; Ki (CA I)/Ki (CA XII)) | S.I. II/XII ([4]; Ki (CA II)/Ki (CA XII)) | Ki [4, 7] | Ki [1, 8] | Ki [2, 8] | Ki [3, 8] | Ki [4, 8] | melting point | Compound | GI50 ([5]; all the cell lines) | GI50 [6] | GI50 ([5]; the rest of the cell lines (other than A549))
1 | 43.2 nM | 56.2 nM | 0.52 | 0.68 | 83 nM | 0.49 | 0.64 | 87.8 nM | – | – | – | – | – | NS(=O)(=O)c1ccc(CCNc2c(NCCc3ccc(S(N)(=O)=O)cc3)c(=O)c2=O)cc1 [Compound 6, 3,4-Bis[2′-(4″-sulfonamidophenyl)ethylamino]cyclobut-3-ene-1,2-dione] | > 100000 nM | – | –
2 | – | – | – | – | – | – | – | – | > 10000 nM | > 10000 nM | 44.1 nM | 14.3 nM | > 250 °C | Cc1cc(=O)oc2cc(OCCCCCNc3c(Nc4ccccc4)c(=O)c3=O)ccc12 [Compound 16b, 3-{[5′-((4″-Methyl-2″-oxo-2″H-chromen-7″-yl)oxy)pentyl]amino}-4-phenylaminocyclobut-3-ene-1,2-dione] | – | 94000 ± 10000 nM | > 100000 nM
3 | – | – | – | – | – | – | – | – | > 10000 nM | > 10000 nM | 59.7 nM | 19.5 nM | 215 to 216 °C | COc1ccc(Nc2c(NCCCCCOc3ccc4c(C)cc(=O)oc4c3)c(=O)c2=O)cc1 [Compound 16e, 3-[(4′-Methoxyphenyl)amino]-4-{[5″-(4‴-methyl-2‴-oxo-2‴H-chromen-7‴-yl)oxypentyl]amino}cyclobut-3-ene-1,2-dione] | > 100000 nM | – | –
4 | – | – | – | – | – | – | – | – | > 10000 nM | > 10000 nM | 43.7 nM | 15.9 nM | – | Cc1cc(=O)oc2cc(OCCCCCNc3c(Nc4ccc(F)cc4)c(=O)c3=O)ccc12 [Compound 16f, 3-[(4′-Fluorophenyl)amino]-4-{[5″-(4‴-methyl-2‴-oxo-2‴H-chromen-7‴-yl)oxypentyl]amino}cyclobut-3-ene-1,2-dione] | > 100000 nM | – | –
